Assay results taken from patent US6541191B2, “Photographic processing solutions” (Eastman Kodak Company, priority 1996, dated 2003).
Several values for one entry are separate records, joined by “and”; a condition that tells them apart may be missing. Equal values may be shown once. Read-outs that look alike come from different tables or passages of the source. One block for each compound: values may come before it.

Key:
Type in all cases: physicochemical
[1] = Solubility of processing compounds (stated in the description)
[2] = Keeping test of continuously aerated developers with limited-solubility antioxidants, analysed for CD3 content (Example 2); conditions: about 0.029 molar antioxidant added, developer pH 10.05; rest solid swirling in solution
Description: The compounds CSD and MCH were compared with diethyl hydroxylamine at equimolar levels in a developer of the composition shown in Table 2.
The antioxidant level was equivalent to 3.0 ml/l diethyl hydroxylamine (85%); which is about 0.029 molar. The three developers were as follows;
These developers were placed in 500 ml measuring cylinders and stirred continuously with magnetic stirrers to create a vortex depth of about 5 mm in each case in order to ensure continuous aeration.

[3] = Equilibrium level of MCH in circulated potassium carbonate solution on dilution or evaporation (Example 1); conditions: potassium carbonate pH 10.5
Description: A circulation system of about 500 ml capacity was set up in which solid N-monocyclohexyl hydroxylamine (MCH) was retained behind a removable filter paper filter. The solution circulated was potassium carbonate at pH=10.5. The solution was left to circulate for 30 minutes and the amount of MCH in solution was determined by removing the paper filter that retained the MCH, drying and weighing it. […] The volume was increased by increments of 10%. In a second part of the experiment most of the solution was removed from the system and evaporated to reduce its volume, again in increments of 10%. Solid MCH came out of solution and was collected on the filter and weighed as before.

solubility [1]: 500 µg/mL to 1000 µg/mL and ~5000 µM
SMILES: CCCNc1nc(NO)nc(NO)n1 [CSD, 4,5-dihydroxylamino-2-propylamino-1,3,5-triazine]

share of the antioxidant in solution in the developer [2]: completely in solution
SMILES: CCN(O)CC [Diethyl hydroxylamine, reference compound]
solubility in water [1]: essentially miscible in all proportions with water

share of the antioxidant in solution in the developer [2]: About 90% | solubility ([1]; aqueous buffer, at developer pH (10.0)): 3900 µg/mL to 4000 µg/mL and ~26000 µM | time for the MCH level to adjust itself to the initial level after dilution or evaporation [3]: ≤ 30 min | MCH in Solution ([3]; volume 70 % relative to initial (evaporation)): 4.03 g/L | MCH in Solution ([3]; volume 80 % relative to initial (evaporation)): 3.92 g/L | MCH in Solution ([3]; volume 90 % relative to initial (evaporation)): 3.88 g/L | MCH in Solution ([3]; volume 100 % relative to initial, 30 minutes): 3.80 g/1 | MCH in Solution ([3]; volume 110 % relative to initial, 30 minutes): 3.81 g/L | MCH in Solution ([3]; volume 120 % relative to initial, 30 minutes): 3.87 g/L | MCH in Solution ([3]; volume 130 % relative to initial, 30 minutes): 4.11 g/L | MCH in Solution ([3]; volume 140 % relative to initial, 30 minutes): 4.05 g/L | MCH in Solution ([3]; volume 150 % relative to initial, 30 minutes): 3.96 g/L
SMILES: ONC1CCCCC1 [MCH, Mono-N-cyclohexylhydroxylamine]

solubility in water [1]: almost entirely insoluble in water
SMILES: ON(Cc1ccccc1)Cc1ccccc1 [dibenzyl-hydroxylamine, reference compound]

solubility in water [1]: too soluble
SMILES: CC(C)(C)NO [mono-t-butyl-hydroxylamine, reference compound]
